In patent US12472166B2, “Inhibition of mycobacterial type VII secretion” (priority 2019, dated 2025):
Entries after “also recorded” stand apart in the source; their conditions may differ.

Tests used:
Assay type in all cases: cell-based
[1] = system: ESX-5 dependent secretion
[2] = system: PE_PGRS and EsxN (ESX-5 dependent secretion)
[3] = system: Apa (SEC dependent secretion)

O=C(CSc1nc(-c2ccccc2)ns1)NC1CCCC1 [Compound I-5]
effect on ESX-5 secretion activity (lipase DGGR vs viability REMA) [1]: significant reduction in lipase activity (substrate DGGR) before the bacterial viability (REMA) is affected

COc1ccc(-c2nsc(SCC(=O)NC3CCCC3)n2)cc1 [Compound I-12]
secreted PE_PGRS proteins compared to DMSO control [2]: most drastic decrease; also recorded: secretion inhibition similar to the non-functional ESX-5 mutant
secretion of Apa [3]: did not affect secretion
effect on secretion of the reporter lipase LipY when mspA was over-produced [1]: showed no changes
lipase secretion compared to DMSO treated control [1]: significant reduction of lipase secretion

COc1ccc(-c2nsc(SCC(=O)NCC3CCCC3)n2)cc1 [Compound I-38, reference compound]
effect on ESX-5 secretion activity (lipase DGGR vs viability REMA) [1]: do not affect the activity of ESX-5

Cc1cccc(-c2nsc(SCC(=O)NCC3CCCO3)n2)c1 (stereo not shown) [Compound I-39, reference compound]
effect on ESX-5 secretion activity (lipase DGGR vs viability REMA) [1]: do not affect the activity of ESX-5

CCOC(=O)CNC(=O)CSc1nc(-c2cccc(C)c2)ns1 [Compound I-40, reference compound]
effect on ESX-5 secretion activity (lipase DGGR vs viability REMA) [1]: affect ESX-5 secretion activity

CCOC(=O)CNC(=O)CSc1nc(-c2ccccc2)ns1 [Compound I-41, reference compound]
effect on ESX-5 secretion activity (lipase DGGR vs viability REMA) [1]: affect ESX-5 secretion activity

CO[C@H]1/C=C/O[C@@]2(C)Oc3c(C)c(O)c4c(O)c(c(/C=N/N5CCN(C)CC5)c(O)c4c3C2=O)NC(=O)/C(C)=C\C=C\[C@H](C)[C@H](O)[C@@H](C)[C@@H](O)[C@@H](C)[C@H](OC(C)=O)[C@@H]1C [Rifampin, reference compound]
lipase activity (DGGR) readout, control condition [1]: negative
